Experiments:
[1] = target: sigma-1 site compared to the sigma-2 site (Homo sapiens, UniProt Q99720); settings: (+) isomers of benzomorphan opiates; cited from earlier work
[2] = test system: spontaneously hypertensive rats exposed to permanent middle artery occlusion (MCAO); assay: Cylinder test for asymmetric forelimb use after MCA occlusion; format: in vivo, rat; settings: for performance in cylinder test versus control animals: 0.03-10 mg/kg s.c. or p.o. from two days after MCAO for 2-8 weeks, present-tense example
Excerpt: (§1) Male 3 months old SHR (spontaneous hypertensive) rats are used for induction of stroke by MCA occlusion. This is the preferred strain since most stroke patients are hypertensive. The animals are anesthetized with Methohexital and a small craniectomy is made above the zygmotic arch to expose the middle cerebral artery, which is occluded with a 10-0 monofilament nylon thread distal to the origin of the striatal branches. The rats are not intubated and no catheters are inserted. Following MCA occlusion a large and reproducible infarct is obtained, leading to a robust sensorimotor deficit. The animals are kept on a 6 hr light/18 h dark cycle with free access to food and water. At two days after the MCAO the rats are treated with the compound I, II, III, IV, V, VI, VII, VIII, or IX (0.03-10 mg/kg) s.c. or p.o. and a control group is given saline for 2-8 weeks. At 2, 4, 6 and 8 weeks animals are tested in the rotating pole or cylinder test.
The cylinder test (modified from Schallert and Tillerson (Innovative models of CNS disease: from molecule to therapy. Clifton, N.J., Humana, 1999) is used to quantify the forelimb use for rearing on the cylinder wall. The rats are monitored as they move freely in a 20-cm-wide clear glass cylinder. Contacts made by each forepaw with the cylinder wall while rearing are scored by a blinded observer. A total of 20 contacts are recorded for each animal, and the number of impaired (left), both, and non-impaired forelimb contacts as percentage of total contacts is calculated. Baseline for rats is achieved by measuring the contacts made by each forepaw before MCAO.
Forty three spontaneously hypertensive rats were exposed to permanent middle artery occlusion (MCAO), then divided into three treatment groups. Starting at two days after occlusion and continuing daily for 14 days, AGY-94806 was administered p.o. in doses of 0.1 mg/kg (14 rats) or 0.3 mg/kg (14 rats). In a control group (15 rats), vehicle only was administered. At the start of treatment, and at several time points during the test, the rats were assessed for their performance in the cylinder test. This test is described in Example 1. It measures the sensory-motor performance of the animals. The performance of the rats in the test was assessed one day before permanent MCAO, then at 14 days, 28 days and 59 days after permanent MCAO. The rats were monitored as they moved freely in a 20 cm-wide clear glass cylinder. Contacts made by each forepaw with the cylinder wall while rearing were scored by a blinded observer. A total of 20 contacts were recorded for each animal, and the number of impaired (left), both, and non-impaired forelimb contacts as a percentage of total contacts was calculated.

[3] = test system: rat primary neuronal cultures; settings: cited from earlier work
[4] = test system: spontaneously hypertensive rats exposed to permanent middle artery occlusion (MCAO); assay: Rotating pole test after MCA occlusion (stroke model); format: in vivo, rat; settings: 0.03-10 mg/kg s.c. or p.o. from two days after MCAO for 2-8 weeks; present-tense example
Excerpt: as §1
Cylinder Test for Asymmetric Use of Forelimb Use in Spontaneous Rearing
Thirty five spontaneously hypertensive rats were exposed to permanent middle artery occlusion (MCAO), then divided into three treatment groups. Starting at two days after occlusion and continuing daily until 28 days after occlusion, AGY-94806 was administered s.c. in doses of 0.3 mg/kg (12 rats) or 1.0 mg/kg (12 rats). In a control group (11 rats), vehicle only was administered. At the start of treatment, and at several time points during the test, the rats were assessed for their performance in the rotating pole model. This model is described in Example 1. It requires the rats to cross a horizontally suspended rotating pole having a length of 1 m. This task measures the sensory-motor performance of the animals. The animals' behaviour was recorded using a video camera and later analyzed and scored by a trained technician. The scoring ranges from 0 to 6, with 0 being very poor performance and 6 reflecting the performance of a healthy animal (without MCAO).

[5] = test system: NMDA-induced toxicity and seizures; settings: in vivo models; cited from earlier work
gerbils = settings: cited from earlier work

Chain of sigma-1 site compared to the sigma-2 site (Q99720 whole entry): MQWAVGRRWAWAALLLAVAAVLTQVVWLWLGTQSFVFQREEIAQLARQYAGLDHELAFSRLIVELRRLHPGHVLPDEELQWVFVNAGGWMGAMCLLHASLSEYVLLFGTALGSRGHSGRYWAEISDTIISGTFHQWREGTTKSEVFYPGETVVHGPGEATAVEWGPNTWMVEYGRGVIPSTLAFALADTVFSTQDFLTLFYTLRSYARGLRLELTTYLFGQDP

| SMILES | performance in cylinder test versus control animals [2] | performance in rotating pole test versus control animals [4] | further results |
| --- | --- | --- | --- |
| CC(C)=CCN1CCC2(C)c3cc(O)ccc3CC1C2C (single isomer, unassigned; (+)) [(+)pentazocine] |  |  | affinity for the sigma-1 site compared to the sigma-2 site [1]: nearly two orders of magnitude higher affinity |
| COc1ccc(CCN2CCN(CCCc3ccccc3)CC2)cc1OC [AGY-94806, 1-(3,4-dimethoxyphenethyl)-4-(3-phenylpropyl) piperazine] | perform better | perform better | asymmetry of paw usage ([2]; 0.3 mg/kg p.o., all time points measured): reduced to pre-MCAO levels; hypoxia/hypoglycemia-induced neurotoxicity [3]: significantly suppress |
| OC(CCCN1CCN(c2ncc(F)cn2)CC1)c1ccc(F)cc1 (stereo not shown) [BMY-14802] |  |  | protective effects against NMDA-induced toxicity and seizures [5]: in vivo protective effects |
| O=C(OCCN1CCOCC1)C1(c2ccccc2)CCCCC1 [III] | perform better | perform better |  |
| O=C(NC1CCN(Cc2ccccc2)CC1)c1ccc(I)cc1 [II] | perform better | perform better |  |
| COc1ccc(CN2CCN(Cc3ccccc3)CC2)c(O)c1OC [IX] | perform better | perform better |  |
| COCCCC/C(=N\OCCN)c1ccc(C(F)(F)F)cc1 [I] | perform better | perform better |  |
| CN(CCc1ccc(Cl)c(Cl)c1)C1CCCCC1N1CCCC1 (stereo not shown) [VIII] | perform better | perform better |  |
| COc1cccc2c1CCC(=O)N2CCCN1CCN(c2cccc(Cl)c2)CC1 [VII] | perform better | perform better |  |
| CCC(C/C=C/c1ccccc1)(c1ccccc1)N(C)CC1CC1 (stereo not shown) [VI] | perform better | perform better |  |
| Fc1ccc(-n2cc(CCCCN3CCC4(CC3)OCc3ccccc34)c3ccccc32)cc1 [V] | perform better | perform better |  |
| CCN(CC)CCOC(=O)C1(c2ccccc2)CCCC1 [caramiphen] |  |  | protective effects against NMDA-induced toxicity and seizures [5]: in vivo protective effects |
| O=C(CCCN1CCC(O)(c2ccc(Cl)cc2)CC1)c1ccc(F)cc1 [haloperidol] |  |  | protective effects against NMDA-induced toxicity and seizures [5]: in vivo protective effects |
| OCCN1CCN(CCCN2c3ccccc3C=Cc3ccccc32)CC1 [opipramol] |  |  | protection against ischemia (gerbils): protect against ischemia |

From patent US7829562B2, “Sigma ligands for neuronal regeneration and functional recovery” (M's Science Corporation, priority 2003, dated 2010)
